14 compounds from patent US4946842A, “Novel guanidino pyridazinones as cardiac stimulants” (Smith Kline & French Laboratories Limited, priority 1985, dated 1990) can be followed below.

For orientation: IC50 means the concentration that inhibits the measured activity by half.

In test [1] the test system is left ventricular dp/dt max. As to the kind of experiment: Cardiac stimulant activity in vivo (anaesthetised cats): left ventricular dp/dt max. Conditions: Felis catus, iv, read-out: ED50 (dose to increase left ventricular dp/dt max by 50%), i.v., pretreated with ganglion blocker and propranolol. Also noted: species or system cat.
Source text: Cardiac Stimulant Activity--In vivo (Anaesthetised Cats)
# Relative duration was estimated in the anaesthetised cats following the
The test system of the next test is PDE (Peak III). As to the kind of experiment: Inhibition of PDE (Peak III). The following applies: read-out: IC50 (PDE Peak III); 1 μM cyclic AMP.
The subject of the next test is ventricular strips. Nature of the test: Cardiac stimulant activity in vitro: force of contraction of electrically stimulated ventricular strips. Type of test: cell-based. Conditions: Cavia porcellus, read-out: EC50 (50% increase in the force of contraction of the ventricular strips); guinea pig ventricular strips, 37° C., 1.0 Hz, cumulative concentration response. As to the method:
The compounds of formula (I) and their pharmaceutically acceptable salts are tested for cardiac stimulant activity following a procedure based on that of S. C. Verma and J. H. McNeill (J.Pharm & Exp. Therapeutics, 200, 352-362 (1977)). Guinea pigs (500-700 g) of either sex are sacrificed and the hearts are quickly removed and transferred to a dissecting dish containing oxygenated bathing fluid. While in the bathing medium, the right ventricle is cut into two strips. The strips are each suspended in a 50 ml bath containing Krebs Henseleit solution at 37° C., and the bath is bubbled with 95% oxygen and 5% carbon dioxide. The ventricular strips are electrically stimulated at a frequency of 1.0 Hz, at double the threshold voltage. A resting tension of 1.0 g is applied to the strips and the tension is kept constant by readjustment during an equilibration period of 60 minutes. The bathing fluid is frequently changed during this period. When a steady base line is obtained, a compound under test is added to the bathing fluid and a cumulative concentration response curve is plotted. The compounds for use in the present invention which were tested gave a 50% increase in the force of contraction of the ventricular strips at concentrations in the bathing fluid of less than 10^-4 molar, thus showing that they have activity as positive inotropic agents.

The test system of a further test is PDE (Peak I). Nature of the test: Substrate kinetics of PDE (Peak I). It counts as biochemical, cat. The following applies: for Relative Vmax: PDE (Peak I), eluted at 0.15 M Na acetate.
Another test relates to PDE (Peak II). The following applies: in words.

Procedure for PDE (Peak II): (§1) The enzyme was assayed by incubation at 37° for 4-30 min in 50 mM Tris, 5 mM MgCl2, pH 7.5 with [3-H] cyclic nucleotide (4×10^5 disintegrations min^-1) and [14-C] nucleotide 5' monophosphate (3×10^3 disintegrations min^-1). The assay was stopped by boiling, and the [3-H] […] The reaction mixture was diluted with 0.5 ml 100 mM HEPES (N-2-Hydroxyethylpiperazine-N'-2-ethanesulfonic acid), 100 mM NaCl, pH 8.5, and applied to the column. […] The recovery of product as judged by [14-C] recovery was approximately 80%. All assays were linear with time of incubation and concentration of enzyme over the range used in these experiments.
Procedure for PDE (Peak III): as §1

`CNC(=NS(C)(=O)=O)Nc1ccc(C2=NNC(=O)CC2C)cc1` (stereo not shown) [Example 2, 6-[4-(N^3-methyl-N^2-methylsulphonylguanidino)phenyl]-5-methyl-4,5-dihydro-3(2H)-pyridazinone]: in test [1], the ED50 stood at 0.2 µmol/kg. In addition, the IC50 with PDE (Peak III) came to 2.48 µM.
Turning to `C=CCNC(=NC#N)Nc1ccc(C2=NNC(=O)CC2C)cc1` (stereo not shown) [Example 7, 6-[4-(N^3 -Allyl-N^2-cyanoguanidino)phenyl]-5-methyl-4,5-dihydro-3(2H)-pyridazinone], in test [1], the ED50 came out at 0.3 µmol/kg. Moreover, the EC50 in the test with ventricular strips was 10 µM.
Take `COc1ccc(CNC(=NC#N)Nc2ccc(C3=NNC(=O)CC3C)cc2)cc1` (stereo not shown) [Example 11, 6-[4-(N^3-(4-Methoxybenzyl)-N^2-cyanoguanidino)phenyl]-5-methyl-4,5-dihydro-3(2H)-pyridazinone]: the ED50 in test [1] was 0.5 µmol/kg.
As for `CC1CC(=O)NN=C1c1ccc(NC(=NC#N)NC2CC2)cc1` (stereo not shown) [Example 6], the ED50 in test [1] came out at 0.4 µmol/kg. In addition, the EC50 with ventricular strips is 10 µM.
For the compound `CNC(=NS(=O)(=O)c1ccccc1)Nc1ccc(C2=NNC(=O)CC2C)cc1` (stereo not shown) [Example 3, 6-[4-(N^ 3-methyl-N^2-phenylsulphonylguanidino)phenyl]-5-methyl-4,5-dihydro-3(2H)-pyridazinone], the ED50 in test [1] was 0.1 µmol/kg. The IC50 with PDE (Peak III) came out at 0.23 µM.
For the compound `CC1CC(=O)NN=C1c1ccc(NC(=NC#N)NCc2ccccc2)cc1` (stereo not shown) [Example 10, 6-[4-(N^3 -Benzyl-N^2-cyanoguanidino)phenyl]-5-methyl-4,5-dihydro-3(2H)-pyridazinone], the ED50 in test [1] came to 0.1 µmol/kg. For the same compound, in the test on ventricular strips, the EC50 came out at 0.8 µM.
Taken in the same sequence, the figures for `CC1CC(=O)NN=C1c1ccc(NC(=NC#N)NCCO)cc1` (stereo not shown) [Example 5, 6-[4-(N^3-(2-Hydroxyethyl)-N^2-cyanoguanidino)phenyl]-5-methyl-4,5-dihydro-3(2H)-pyridazinone] were 0.7 µmol/kg and 8 µM.
As for `Nc1nc2c(ncn2[C@@H]2O[C@@H]3COP(=O)(O)O[C@H]3[C@H]2O)c(=O)[nH]1` [cyclic GMP], the “Relative Vmax” value with PDE (Peak I) (50 μg/ml calmodulin added) was determined as 7.2; with PDE (Peak I) (without calmodulin) it was 1.1. In addition, the “affinity of PDE (Peak I)” value in the test with PDE (Peak I) (in words) is “high affinity”. Besides, in the test with PDE (Peak II), the “affinity of PDE (Peak II)” value is “relatively low affinities”.
`CC1CC(=O)NN=C1c1ccc(NC(=NC#N)NCCc2ccccc2)cc1` (stereo not shown) [Example 13, 6-[4-(N^3 -Phenethyl-N^2-cyanoguanidino)phenyl]-5-methyl-4,5-dihydro-3(2H)-pyridazinone]: the EC50 in the test on ventricular strips is 12.5 µM.
Take `CC1CC(=O)NN=C1c1ccc(NC(=NC#N)NCc2ccc(O)cc2)cc1` (stereo not shown) [Example 9, 6-[4-(N^3-(4-Hydroxybenzyl)-N^2-cyanoguanidino)phenyl]-5-methyl-4,5-dihydro-3(2H)-pyridazinone]: in test [1], the ED50 was 0.4 µmol/kg. For the same compound, in the test with PDE (Peak III), the IC50 came to 0.08 µM.
For the compound `CC(=O)N=C(N)Nc1ccc(C2=NNC(=O)CC2C)cc1` (stereo not shown) [Example 1, 6-[4-(N^2-acetylguanidino)phenyl]-5-methyl-4,5-dihydro-3(2H)-pyridazinone], the ED50 in test [1] was 0.5 µmol/kg. Further, the IC50 in the test with PDE (Peak III) amounted to 2.23 µM. Moreover, in the test on ventricular strips, the EC50 stood at 16 µM.
For the compound `C#CCNC(=NC#N)Nc1ccc(C2=NNC(=O)CC2C)cc1` (stereo not shown) [Example 8, 6-[4-(N^3 -Propargyl-N^2-cyanoguanidino)phenyl]-5-methyl-4,5-dihydro-3(2H)-pyridazinone], the ED50 in test [1] is 0.4 µmol/kg. Besides, the EC50 in the test on ventricular strips was found to be 18 µM.
`CC1CC(=O)NN=C1c1ccc(NC(=NC#N)NCc2ccccn2)cc1` (stereo not shown) [Example 12, 6-[4-(N^3-(2-Pyridylmethyl)-N^2-cyanoguanidino)phenyl]-5-methyl-4,5-dihydro-3(2H)-pyridazinone]: in the test with ventricular strips, the EC50 stood at 12 µM.
With `COCCNC(=NC#N)Nc1ccc(C2=NNC(=O)CC2C)cc1` (stereo not shown) [Example 4, 6-[4-(N^3-(2-Methoxyethyl)-N^2-cyanoguanidino)phenyl]-5-methyl-4,5-dihydro-3(2H)-pyridazinone], the ED50 in test [1] stood at 0.2 µmol/kg. Further, the EC50 in the test with ventricular strips stood at 2.8 µM.
